Values of other authors as cited in patent US8536188B2, “Dosing regimens for treatment of proliferative disorders comprising administration of sapacitabine” (Cyclacel Limited, priority 2007, dated 2013).

Columns and labels:
cytidine deaminase = cytidine deaminase (Homo sapiens, UniProt P32320); details: compared with ara-C
[1] = tested on: human tumour cells from various organs
NSCLC = details: 10 mg/m^2 intravenously over 30 minutes every three weeks
[2] = tested on: cancer cell lines, including those lacking deoxycytidine kinase; details: variety of cancer cell lines
[3] = in vivo
[4] = phase I, patients with a variety of cancers
colon cancer = details: model of colon cancer
[5] = tested on: ara-C-resistant tumour cell lines
[6] = single dose in rodents; repeat dose up to 3 months in mice and dogs
CTCL = CTCL patients

cytidine deaminase, sequence (P32320 whole entry, species assumed): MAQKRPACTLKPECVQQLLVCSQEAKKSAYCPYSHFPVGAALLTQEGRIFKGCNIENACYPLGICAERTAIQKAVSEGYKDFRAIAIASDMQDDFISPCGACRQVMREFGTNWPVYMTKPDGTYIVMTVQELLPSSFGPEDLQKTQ

Q: For N#C[C@H]1[C@H](O)[C@@H](CO)O[C@H]1n1ccc(N)nc1=O [CNDAC, 2′-C-Cyano-2′-deoxy-β-D-arabino-pentafuranosylcytosine], which “substrate of cytidine deaminase” value (cytidine deaminase) is on record?
A: weak substrate

Q: What about the “activity against human tumour cells” value [1] of the same compound?
A: broad spectrum of activity

Q: Which “activity in NSCLC” value (NSCLC) does the source give for Nc1ccn([C@@H]2CO[C@H](CO)O2)c(=O)n1 [troxacitabine] here?
A: little activity

Q: Which “cytotoxicity of the parent drug” value [2] does the source give for CCCCCCCCCCCCCCCC(=O)Nc1ccn([C@@H]2O[C@H](CO)[C@@H](O)[C@@H]2C#N)c(=O)n1 [sapacitabine, 2′-cyano-2′-deoxy-N^4-palmitoyl-1-β-D-arabinofuranosylcytosine] here?
A: cytotoxic

Q: What about the oral bioavailability [3] of the same compound?
A: good

Q: And the dose limiting toxicity [4]?
A: myelosuppression

Q: What about the tolerability [4] of the same compound?
A: well tolerated

Q: What about the anticancer activity (colon cancer) of the same compound?
A: strong anticancer activity

Q: And the “increasing survival, compared with gemcitabine or 5-FU” value (colon cancer)?
A: superior to either gemcitabine or 5-FU

Q: What about the “preventing the spread of colon cancer metastases to the liver, compared with gemcitabine or 5-FU” value (colon cancer) of the same compound?
A: superior to either gemcitabine or 5-FU

Q: What about the “activity against human tumour cells” value [1] of the same compound?
A: broad spectrum of activity

Q: What about the “cross-resistance to ara-C-resistant tumour cell lines” value [5] of the same compound?
A: partial cross-resistance

Q: What about the “activity in vivo against resistant P388 leukemia cell lines” value (P388 leukemia; P388 resistant to mitomycin C, vincristine, 5-FU or cisplatin) of the same compound?
A: active

Q: And the “antitumour activity compared with 5′-DFUR and gemcitabine” value (P388 leukemia; mouse P388 leukemia model)?
A: much more potent antitumour activity than 5′-DFUR and gemcitabine

Q: What about the “effect on tumour xenografts” value (human tumour xenograft; gastric, mammary, lung, colorectal and hepatic tumour xenografts) of the same compound?
A: tumour regressions were observed

Q: And the “antitumour activity compared with 5′-DFUR and gemcitabine” value (human tumour xenograft; human xenografts of poorly differentiated gastric adenocarcinoma)?
A: much more potent antitumour activity than 5′-DFUR and gemcitabine

Q: What about the “antitumour activity in human tumour xenograft models” value (human tumour xenograft; variety of tumours) of the same compound?
A: active against a variety of tumours

Q: What about the major toxicities [6] of the same compound?
A: hematopoietic, gastrointestinal, and testicular

Q: For N#CC1C(O)C(COP(=O)(O)OP(=O)(O)OP(=O)(O)O)OC1n1ccc(N)nc1=O (centres unmarked) [CNDACTP, CNDAC-triphosphate], which “inhibition of DNA polymerase” value (DNA polymerase) is on record?
A: potent inhibition

Q: Which response rate (CTCL) does the source give for Nc1ccn([C@@H]2O[C@H](CO)[C@@H](O)C2(F)F)c(=O)n1 [Gemcitabine, gemcitabine] here?
A: 60-70%
